The values below come from patent publication US7265087B1, “Exendin improves β-cell response in subjects with impaired glucose tolerance” (priority 1998, dated 2007).

Values joined by “and” are separate entries in the source; they are usually repeats but may differ in a detail not shown here. Identical values can stand only once. No end group written: not given here.

The subject of one experiment is pancreas. Particulars: background statement; cited from earlier work.
A further experiment concerns subjects with NIDDM. Briefly: 12 hour oscillatory glucose infusion with constant GLP-1 infusion, subjects with NIDDM. The experiment is classed as in vivo, human. On the set-up: Mean glucose 12 hour GLP-1: unit not given beside the values. The method, then:
(§1) The studies described herein were performed in 10 subjects who were divided into two groups on the basis of their plasma glucose response to an oral glucose tolerance test using the criteria of the World Health Organization to define the degree of glucose tolerance. Five subjects had IGT, and five subjects had NIDDM. The gender, age, body mass index (BMI), basal levels of fasting glucose, 2 hour glucose, fasting insulin, and HBA1c for each subject are presented in Table 2. Diabetic subjects were older than those with IGT, but the groups were matched for by BMI. Mean fasting glucose levels and glycosylated hemoglobin concentrations were lower in the IGT group compared to subjects with NIDDM.
(§2) The coefficient of variation of this method was <2%. […] The average intraassay coefficient of variation was 5%. […] Diabetes 27, Suppl 1: 170-177, 1978.
(§3) All results are expressed as mean±SEM. Data analysis was performed using the Statistical Analysis System (SAS Version 6 Edition, for Personal Computers, SAS Institute, Inc., Cary, N.C.). The significance of differences within the individual induced by GLP-1 infusion was determined using paired t tests. Differences were considered to be significant if P<0.05.
(§4) Standard kinetic parameters for C-peptide clearance adjusted for age, sex and body surface area were utilized, Van Cauter E, Mestrez, F, Sturis J, Polonsky K S. Estimation of insulin secretion rates from C-peptide levels: comparison of individual and standard kinetic parameters for C-peptide clearance. Diabetes 41:368-377, 1992. These parameters were used to derive, in each 15 minute interval between blood sampling, the ISR from the plasma C-peptide concentrations by deconvolution as previously described.
The diabetic subjects were treated with diet alone with the exception of one subject D07, who was previously treated with an oral hypoglycemic agent that was discontinued 4 weeks prior to the study. None of the diabetic patients had ever received insulin. All subjects were placed on a weight maintenance diet containing at least 200 g of carbohydrate per day for two weeks before the study.
(§5) Each subject was studied on three separate occasions. All studies were performed after a 12-hour overnight fast beginning at 0700 unless otherwise stated with subjects in the recumbent position. An intravenous catheter was placed in each forearm, one for blood sampling and one for administration of glucose and GLP-1 as needed. In all experiments, the arm containing the sampling catheter was maintained in a heating blanket to ensure arterialization of the venous sample. In the following examples, the GLP-1 was administered to the subjects in the GLP-1 (7-36) amide form.
(§6) In order to determine whether the β-cells were able to detect and respond to oscillations of glucose, glucose was infused in an oscillatory pattern with a small volume of saline for 12 hours.
(§7) To determine whether insulin secretion was entrained by glucose in individual subjects, the temporal profiles of insulin secretion were analyzed by spectral analysis. Spectral power analysis was used to evaluate the presence of tight coupling between oscillations in glucose and oscillations in ISR. This method evaluated the regularity of insulin secretory oscillations at a predetermined frequency. Spectral peaks correspond to the dominant periodicity and height of the peaks correspond to spectral power. Each spectrum was normalized assuming the total variance of each series to be 100% and was expressed as the normalized spectral power.

In experiment [1] the test system is subjects with impaired glucose tolerance (IGT). Nature of the experiment: 12 hour oscillatory glucose infusion with constant GLP-1 infusion, subjects with IGT. Also noted: Mean glucose 12 hour GLP-1 / Mean ISR 12 hour GLP-1: unit not given beside the values. Format: in vivo, human. The method, then:
as §1, §2, §3, §4, §5, §6, §7

Turning to “SEQ ID NO:6 (EGTFTSDVSSYLEGQAAKEFIAWLVKGR-NH2)”, the “production or release of insulin from the pancreas” value with pancreas was “do not stimulate the production or release of insulin from the pancreas”.

Regarding `CC[C@H](C)[C@H](NC(=O)[C@H](Cc1ccccc1)NC(=O)[C@H](CCC(=O)O)NC(=O)[C@H](CCCCN)NC(=O)[C@H](C)NC(=O)[C@H](C)NC(=O)[C@H](CCC(N)=O)NC(=O)CNC(=O)[C@H](CCC(=O)O)NC(=O)[C@H](CC(C)C)NC(=O)[C@H](Cc1ccc(O)cc1)NC(=O)[C@H](CO)NC(=O)[C@H](CO)NC(=O)[C@@H](NC(=O)[C@H](CC(=O)O)NC(=O)[C@H](CO)NC(=O)[C@@H](NC(=O)[C@H](Cc1ccccc1)NC(=O)[C@@H](NC(=O)CNC(=O)[C@H](CCC(=O)O)NC(=O)[C@H](C)NC(=O)[C@@H](N)Cc1c[nH]cn1)[C@@H](C)O)[C@@H](C)O)C(C)C)C(=O)N[C@@H](C)C(=O)N[C@@H](Cc1c[nH]c2ccccc12)C(=O)N[C@@H](CC(C)C)C(=O)N[C@H](C(=O)N[C@@H](CCCCN)C(=O)NCC(=O)N[C@@H](CCCNC(=N)N)C(N)=O)C(C)C` [GLP-1, GLP-1 (7-36) amide], the “Mean ISR 12 hour GLP-1” value with subjects with NIDDM (NIDDM group, Mean ± SEM, n=5, GLP-1 0.4 pmol/kg/min for 12 hours) is 508 ± 53.4; with subjects with NIDDM (individual NIDDM subjects D06-D10, GLP-1 0.4 pmol/kg/min for 12 hours with oscillatory glucose infusion), 477.7 and 715.4 and 487.7 and 412.5 and 448.9; in experiment [1] (IGT group, Mean ± SEM, n=5, GLP-1 0.4 pmol/kg/min for 12 hours) it was 654.2 ± 152.1; in experiment [1] (individual IGT subjects D01-D05, GLP-1 0.4 pmol/kg/min for 12 hours with oscillatory glucose infusion), 465.9 and 1042.7 and 365.9 and 1005.8 and 390.9. In addition, the “Mean glucose 12 hour GLP-1” value is 9.40 ± 0.9 with subjects with NIDDM (NIDDM group, Mean ± SEM, n=5, GLP-1 0.4 pmol/kg/min for 12 hours, P<0.05 vs saline); 11.53 and 10.51 and 6.24 and 8.84 and 9.90 in the experiment on subjects with NIDDM (individual NIDDM subjects D06-D10, GLP-1 0.4 pmol/kg/min i.v. for 12 hours with oscillatory glucose infusion); 6.35 ± 0.08 in experiment [1] (IGT group, Mean ± SEM, n=5, GLP-1 0.4 pmol/kg/min for 12 hours, P<0.05 vs saline); 6.06 and 6.46 and 6.36 and 6.37 and 6.48 in experiment [1] (individual IGT subjects D01-D05, GLP-1 0.4 pmol/kg/min i.v. for 12 hours with oscillatory glucose infusion). Moreover, the “mean ISRs during GLP-1 infusion compared to saline infusion” value (with subjects with NIDDM (NIDDM subjects); in experiment [1] (IGT subjects)) was “not significantly different” in each case. Further, the “mean normalized spectral power for glucose during GLP-1 infusion” value with subjects with NIDDM (NIDDM subjects, P=0.18 vs saline, mean±SEM) was 9.8±0.7; in experiment [1] (IGT subjects, P=0.19 vs saline, mean±SEM), 13.2±1.6. Also, the “Mean glucagon levels during GLP-1 infusion” value in the experiment on subjects with NIDDM (NIDDM subjects, P=0.4 vs saline, mean±SEM) worked out at 46.4 ± 3.2 pg/mL; in experiment [1] (IGT subjects, P=0.94 vs saline, mean±SEM), 39.3 ± 5.4 pg/mL. Besides, the “increase of mean insulin levels during GLP-1 infusion compared to saline” value in the experiment on subjects with NIDDM (NIDDM subjects, P=0.56, mean±SEM) was determined as 7 ± 12 pmol/L; in experiment [1] (IGT subjects, P=0.32, mean±SEM), 102 ± 90 pmol/L. The “Spectral power for ISR during GLP-1 infusion” value amounted to 1.5±0.8 with subjects with NIDDM (NIDDM subjects, normalized, P=0.6 vs saline, mean±SEM) and 8.9±1.7 in experiment [1] (IGT subjects, normalized, P<0.006 vs saline, mean±SEM). Also, the “average drop of mean glucose levels during GLP-1 infusion compared to saline” value in the experiment on subjects with NIDDM (diabetics (NIDDM), P<0.0005, mean±SEM) was 5.2 ± 0.5 mM; in experiment [1] (IGT subjects, P<0.02, mean±SEM) it was 2.4 ± 0.6 mM. Moreover, the “Spectral power during GLP-1 infusion, individual subject” value in the experiment on subjects with NIDDM (one subject with NIDDM (D07, FIGS. 6C and 6D), 0.28 during saline) is 1.51 and 1.5; in experiment [1] (one subject with IGT (D02, FIGS. 6A and 6B), 0.6 during saline), 8.9. The “pattern of insulin secretory responses to glucose during GLP-1 infusion” value with subjects with NIDDM (two subjects with NIDDM, D07 and D09 (FIGS. 4B and 4D)) is listed as “not improved”; in experiment [1] (representative subjects with IGT, D01 and D02 (FIGS. 3B and 3D)) it was “improved”. For the same compound, the “periodicity of the dominant spectral peak in ISR during GLP-1 infusion” value in experiment [1] (individual IGT subject, period of exogenous glucose infusion 144 minutes) came out at 144 min.

On to “SEQ ID NO:5 (EGTFTSDVSSYLEGQAAKEFIAWLVKGRG; mammalian)”, for which the “production or release of insulin from the pancreas” value with pancreas is “do not stimulate the production or release of insulin from the pancreas”.
